Measured values: patent publication US10493035B2, “Tablets comprising 2-hydroxy-6-((2-(1-isopropyl-1H-pyrazol-5-yl)pyridin-3-yl)methoxy)benzaldehyde” (Global Blood Therapeutics, Inc., priority 2016, dated 2019)

How the values were obtained:
[1] = Compression profile of neat Form II API (hydraulic press, 200 mg compacts); assay type: physicochemical; details: for Tablet Hardness / Tablet Thickness: neat API 200 mg
Protocol: The compressibility of crystalline Form II of Compound 1 (“API”) was determined by compressing neat unformulated API at 200 mg scale compressed in a hydraulic press using 5/16th inch diameter, standard concave round tooling. The resulting tablets were measured for thickness using a digital caliper gauge, and for tensile strength using a tablet hardness tester. […] Lots 1a and 2 were directly from the API manufacturing process, but from different API suppliers. Lot 1b was prepared by taking Lot 1a and subjecting it to hammer milling to cause reduction of particle size.

[2] = Physicochemical and biopharmaceutical properties of Compound 1 and its crystal forms
Protocol: Compound 1 is a BCS II compound, where its solubility is the primary biopharmaceutical factor limiting absorption. Compound 1 exists in one form as an ansolvate crystalline form characterized by at least two, three or four X-ray powder diffraction peaks (Cu Kα radiation) selected from 13.37°, 14.37°, 19.95° and 23.92° 2θ (each ±0.2° 2θ) (see, e.g., PCT application Publication No. WO 2015/120133 A1, incorporated herein by reference in its entirety and for all purposes). This form can hereinafter also be referred to as Form II. The physicochemical properties of Compound 1, including its Form II, are not as conducive (compared to other drug substances for formulation) to making a high dosage form of Compound 1. […] The bulk density of Form II of Compound 1 is considered low and its flowability considered poor. Upon milling, the flowability decreases. […] Form II of Compound 1 is also prone to sticking to steel surfaces, such as in processing equipment for tablet manufacture.
In addition, another ansolvate crystalline form of Compound 1, referred to as Form N, is known. Form N has an enantiotropic relationship with Form II, with a transition temperature approximately in the range 30-40° C. Thus, under temperatures (e.g. storage) below 40° C., e.g., at 25° C., Compound 1 is more thermodynamically stable as Form II and at temperatures above 40° C., e.g., at 50° C., Compound 1 is more thermodynamically stable as Form N. To design tablets containing Compound 1, the above physicochemical property limitations of Compound 1 and the high dose requirements need to be accommodated while ensuring that the tablets have dissolution properties that lead to a therapeutic effect.

[3] = compression force 2000 lbf, listed as 2
[4] = compression force 3000 lbf, listed as 2
[5] = compression force 4000 lbf, listed as 2
[6] = compression force 2000 lbf, listed as 1b
[7] = compression force 3000 lbf, listed as 1b
[8] = compression force 4000 lbf, listed as 1b
[9] = compression force 2000 lbf, listed as 1a
[10] = compression force 3000 lbf, listed as 1a
[11] = compression force 4000 lbf, listed as 1a

In the case of `CC(C)n1nccc1-c1ncccc1COc1cccc(O)c1C=O` [Lot 2, 2-hydroxy-6-((2-(1-isopropyl-1H-pyrazol-5-yl)pyridin-3-yl)methoxy)benzaldehyde], the “Tablet Hardness” value [1, 3] is reported as 9.0 kp, the “Tablet Thickness” value [1, 3] is reported as 4.50 mm and the “Tablet Hardness” value [1, 4] is reported as 3.7 kp. The “Tablet Thickness” value [1, 4] was 4.27 mm, the “Tablet Hardness” value [1, 5] was 3.4 kp and the “Tablet Thickness” value [1, 5] was 4.31 mm.
In the case of `CC(C)n1nccc1-c1ncccc1COc1cccc(O)c1C=O` [Compound 1, 2-hydroxy-6-((2-(1-isopropyl-1H-pyrazol-5-yl)pyridin-3-yl)methoxy)benzaldehyde], the BCS class [2] is reported as “BCS II”.
In the case of `CC(C)n1nccc1-c1ncccc1COc1cccc(O)c1C=O` [Form N, 2-hydroxy-6-((2-(1-isopropyl-1H-pyrazol-5-yl)pyridin-3-yl)methoxy)benzaldehyde], the “Transition temperature of the enantiotropic relationship with Form II” value [2] is reported as 30-40 °C.
With `CC(C)n1nccc1-c1ncccc1COc1cccc(O)c1C=O` [Lot 1b, 2-hydroxy-6-((2-(1-isopropyl-1H-pyrazol-5-yl)pyridin-3-yl)methoxy)benzaldehyde] the “Tablet Hardness” value [1, 6] was 2.4 kp, the “Tablet Thickness” value [1, 6] was 4.55 mm and the “Tablet Hardness” value [1, 7] was 1.2 kp. The “Tablet Thickness” value [1, 7] was 4.32 mm, the “Tablet Hardness” value [1, 8] was 1.5 kp and the “Tablet Thickness” value [1, 8] was 4.43 mm.
For `CC(C)n1nccc1-c1ncccc1COc1cccc(O)c1C=O` [Lot 1a, 2-hydroxy-6-((2-(1-isopropyl-1H-pyrazol-5-yl)pyridin-3-yl)methoxy)benzaldehyde], the “Tablet Hardness” value [1, 9] was 1.8 kp, the “Tablet Thickness” value [1, 9] was 4.50 mm and the “Tablet Hardness” value [1, 10] was 1.5 kp. The “Tablet Thickness” value [1, 10] was 4.34 mm, the “Tablet Hardness” value [1, 11] was 1.0 kp and the “Tablet Thickness” value [1, 11] was 4.35 mm.
With `CC(C)n1nccc1-c1ncccc1COc1cccc(O)c1C=O` [Form II of Compound 1, 2-hydroxy-6-((2-(1-isopropyl-1H-pyrazol-5-yl)pyridin-3-yl)methoxy)benzaldehyde] the “Lipophilicity (in words)” value [2] was “lipophilic”, the “Water solubility (in words)” value [2] was “poorly water soluble” and the “Compressibility (in words)” value ([1]; neat API) was “relatively incompressible solid”.
